Reference: US10100055B2, “Imidazopyrroloquinoline salt, method for producing the same, medicament, cosmetic, and food” (Mitsubishi Gas Chemical Company, Inc., priority 2016, dated 2018)

Legend:
[1] = Solubility in water or ethanol, by absorbance at 260 nm; format: physicochemical; details: thermodynamic from solid
Procedure: The resultants were allowed to stand at the following temperatures (23° C. or 50° C.) for 1 hour, and thereafter centrifuged, and filtered with a filter of 0.5 μm; […] at an absorption wavelength of 260 nm.

[2] = system: Human uterine cancer cells (HeLa cells); experiment: Cell activity test (cell counting kit 8); format: cell-based; design: number of the human uterine cancer cells (number without sample taken to be 100): dose or concentration left out as unconfirmed
Procedure: Human uterine cancer cells (HeLa cells) were cultured in an incubator at a 5%-CO2 concentration and at 37° C. Thereafter, the human uterine cancer cells were inoculated to 96 wells so as to become 1000 cells/well, and cultured for one night. Then, a suspension in which the sample of Example 1 was suspended in a phosphate buffer so as to become 1 g/L was used and added so as to become […]. After 2 days, by using a “cell counting kit 8” (trade name, manufactured by Dojindo Laboratories), the number of the human uterine cancer cells was measured. When the number of the human uterine cancer cells 2 days after the culture for one night when the sample of Example 1 was not added was taken to be 100, the number of the cells when the sample of Example 1 in […] was used was 112.

Compound: N=C(N)NCCCc1nc2c(=O)c3cc(C(=O)O)[nH]c3c3c(C(=O)O)cc(C(=O)O)n1c23 [Example 1, argIPQ disodium trihydrate]
- solubility at 1 h ([1]; organic solvent or mixture, ethanol, 23° C.): 0.4 mg/mL
- solubility at 1 h ([1]; water, 23° C.): 37 mg/mL
- solubility at 1 h ([1]; water, 50° C.): 47 mg/mL
- effect on cell proliferation (in words) [2]: functioned to advance the cell proliferation
- number of the human uterine cancer cells (number without sample taken to be 100) ([2]; after 2 days, control = 100): 112
